Results from publication PMC13266999, “Designing Antibiotics with Inherent Resistance to Efflux as a Strategy to Revive Discovery against Multidrug-Resistant Pathogens” (Journal of Medicinal Chemistry, 2026).
In brackets after ≈: the same amount, converted by molar mass. Where two headings read alike, the source gives them in different places.

Assays:
CYP2B6 = CYP2B6 (Homo sapiens, UniProt P20813); assay: CYP inhibition; conditions: human, human liver microsomes, probe bupropion, CYP2B6 inhibition, HLM, bupropion substrate
Procedure: Cytochrome P450 inhibition was assessed in vitro using human recombinant enzymes in microsomal preparations. […] Enzyme activity was quantified by monitoring formation of substrate-specific metabolites, and percent inhibition was calculated relative to vehicle control.

S. dysgalactiae = assay: MIC (microbroth dilution); format: cell-based; conditions: for MIC: Streptococcus dysgalactiae
Outline: (§1)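 Broth microdilution MICs were run in tryptic soy broth, or for Streptococcus spp. in cation-adjusted Mueller Hinton broth with 2.5% lysed horse blood, using overnight stationary-phase cultures back-diluted. MIC was the lowest concentration with no visible growth, with OD600 also read. Some MICs included PMBN at 30 μg/mL final.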

Pseudomonas aeruginosa = assay: MIC (microbroth dilution); format: cell-based
Outline: as §1

S. pyogenes = assay: MIC (microbroth dilution); format: cell-based, Streptococcus pyogenes; conditions: for MIC: Streptococcus pyogenes
Procedure: All bacteria were maintained on tryptic soy agar (TSA), except Streptococcus spp., which were maintained on Columbia agar plates containing 5% horse blood. All bacterial assays were carried out in tryptic soy broth (TSB), except for Streptococcus spp. which were grown in cation-adjusted Mueller Hinton broth containing 2.5% lysed horse blood. Bacteria were grown to stationary phase in liquid culture overnight, with shaking at 200 rpm, before being back diluted to the relevant starting concentration for each assay below. MICs were measured by the microbroth dilution method. […] Absorbance at OD600 was read on a CLARIOstar spectrophotometer (BMG Labtech) and the MIC was defined as the minimum concentration of compound where no visible growth was detected. The compounds were prepared as a DMSO stock and equivalent concentrations of DMSO had no effect on bacterial growth. MICs were also performed in the presence of the outer membrane permeator, polymyxin b nonapeptide (PMBN) following the same MIC method but with the following variation. The 2-fold dilution series of compound was prepared as above, then 50 μL of PMBN at a final concentration of 30 μg/mL was added to relevant wells, while 50 μL/well of blank media was added to the remaining wells. Bacteria were then added at 50 μL/well for a starting concentration as above. Thirty μg/mL of PMBN had no effect on bacterial growth. The MICs were read and defined as above. All animal procedures were performed by the contract research organization Pharmacology Discovery Services Taiwan in accordance with the Guide for the Care and Use of Laboratory Animals. The procedures were approved by the Institutional Ethics Committee of Pharmacology Discovery Services Taiwan, Ltd. (approval no. AB127662), in compliance with animal welfare legislation in Taiwan.

Chain of CYP2B6 (P20813 whole entry): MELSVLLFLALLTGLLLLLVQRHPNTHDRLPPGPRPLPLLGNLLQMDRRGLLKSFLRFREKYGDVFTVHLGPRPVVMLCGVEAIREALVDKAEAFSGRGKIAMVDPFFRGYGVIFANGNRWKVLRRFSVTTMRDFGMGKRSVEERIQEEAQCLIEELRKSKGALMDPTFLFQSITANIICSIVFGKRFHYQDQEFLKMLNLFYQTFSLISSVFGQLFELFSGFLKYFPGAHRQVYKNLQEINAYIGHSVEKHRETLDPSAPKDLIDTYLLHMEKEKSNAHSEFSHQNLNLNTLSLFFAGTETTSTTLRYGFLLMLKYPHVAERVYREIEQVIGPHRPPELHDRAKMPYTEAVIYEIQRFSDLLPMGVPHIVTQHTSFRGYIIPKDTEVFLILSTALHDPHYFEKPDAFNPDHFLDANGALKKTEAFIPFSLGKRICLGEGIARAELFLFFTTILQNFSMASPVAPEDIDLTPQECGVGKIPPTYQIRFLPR

Work on C[C@H]1COc2c(N3CC[C@@H](Nc4ncccn4)C3)c(F)cc3c(=O)c(C(=O)O)cn1c23 [Compound 46, (S)-9-Fluoro-3-methyl-7-oxo-10-((R)-3-(pyrimidin-2-ylamino)pyrrolidin-1-yl)-2,3-dihydro-7H-[1,4]oxazino[2,3,4-ij]quinoline-6-carboxylic acid] yielded an inhibition at 10 µM (CYP2B6) of -1.3%, an MIC (S. dysgalactiae; 10238, read-out: MIC) of 0.06 to 0.25 µg/mL (≈ 0.141 to 0.588 µM) and an MIC (S. dysgalactiae; 13759, read-out: MIC) of 0.06 µg/mL (≈ 0.141 µM). It also gave an MIC (S. dysgalactiae; 13762, read-out: MIC) of 0.06 µg/mL (≈ 0.141 µM), an MIC (S. dysgalactiae; 81251) of 0.125 µg/mL (≈ 0.294 µM) and an MIC (S. dysgalactiae; 81553) of 0.125 µg/mL (≈ 0.294 µM). It also gave an MIC (S. dysgalactiae; 84143) of 0.06 to 0.125 µg/mL (≈ 0.141 to 0.294 µM), an MIC (S. dysgalactiae; 84557) of 0.03 to 0.125 µg/mL (≈ 0.0705 to 0.294 µM) and an MIC (S. dysgalactiae; 84574) of 0.06 to 0.125 µg/mL (≈ 0.141 to 0.294 µM). For the same compound, the MIC range (S. dysgalactiae; n = 8) was 0.0625 to 0.125 µg/mL, the MIC (Pseudomonas aeruginosa; CAS4, + PMBN) was 0.06 µg/mL and the MIC (Pseudomonas aeruginosa; CFL 004 CRCN, + PMBN) was 8 µg/mL. For the same compound, the MIC (Pseudomonas aeruginosa; GH12, + PMBN) was 0.5 µg/mL, the MIC (Pseudomonas aeruginosa; NCTC 10662, + PMBN) was no more than 0.03 µg/mL and the MIC (Pseudomonas aeruginosa; NCTC 12903, + PMBN) was no more than 0.03 µg/mL. It also gave an MIC (Pseudomonas aeruginosa; NCTC 13359, + PMBN) of 0.06 µg/mL, an MIC (Pseudomonas aeruginosa; PAO1 ΔmexB, + PMBN) of no more than 0.03 µg/mL and an MIC (Pseudomonas aeruginosa; Pseudomonas aeruginosa, CAS4, read-out: MIC) of 8 µg/mL (≈ 18.8 µM). For the same compound, the MIC (Pseudomonas aeruginosa; Pseudomonas aeruginosa, GH12, read-out: MIC) was greater than 32 µg/mL, the MIC (Pseudomonas aeruginosa; Pseudomonas aeruginosa, GH100, read-out: MIC) was 1 to 4 µg/mL (≈ 2.35 to 9.4 µM) and the MIC (Pseudomonas aeruginosa; Pseudomonas aeruginosa, NCTC10662, NCTC 10662, read-out: MIC) was 8 µg/mL (≈ 18.8 µM). For the same compound, the MIC (Pseudomonas aeruginosa; Pseudomonas aeruginosa, NCTC12903, NCTC 12903, read-out: MIC) was 8 µg/mL (≈ 18.8 µM), the MIC (Pseudomonas aeruginosa; Pseudomonas aeruginosa, NCTC13359, NCTC 13359, read-out: MIC) was 4 to 32 µg/mL (≈ 9.4 to 75.2 µM) and the MIC (Pseudomonas aeruginosa; Pseudomonas aeruginosa, PAO1, PAO1, read-out: MIC) was 4 to 8 µg/mL (≈ 9.4 to 18.8 µM). The MIC (Pseudomonas aeruginosa; Pseudomonas aeruginosa, CFL 004 CRCN, read-out: MIC) was greater than 32 µg/mL, the MIC50 (Pseudomonas aeruginosa; Pseudomonas aeruginosa, in the presence of PMBN, n = 7 strains) was 0.06 µg/mL and the MIC (S. pyogenes; 8198, read-out: MIC) was no more than 0.03 µg/mL. For the same compound, the MIC (S. pyogenes; 12048) was 0.03 to 0.125 µg/mL (≈ 0.0705 to 0.294 µM), the MIC (S. pyogenes; 13736, read-out: MIC) was 0.06 µg/mL (≈ 0.141 µM) and the MIC (S. pyogenes; 13737) was 0.125 µg/mL (≈ 0.294 µM). For the same compound, the MIC (S. pyogenes; 13738) was 0.125 µg/mL (≈ 0.294 µM), the MIC (S. pyogenes; 80661) was 0.06 to 0.125 µg/mL (≈ 0.141 to 0.294 µM) and the MIC (S. pyogenes; 81017) was 0.125 µg/mL (≈ 0.294 µM). The MIC (S. pyogenes; 82434, read-out: MIC) was 0.06 µg/mL (≈ 0.141 µM), the MIC (S. pyogenes; 82896, read-out: MIC) was 0.06 µg/mL (≈ 0.141 µM) and the MIC (S. pyogenes; 83581) was 0.06 to 0.125 µg/mL (≈ 0.141 to 0.294 µM). For the same compound, the MIC (S. pyogenes; 84285, read-out: MIC) was 0.06 µg/mL (≈ 0.141 µM), the MIC (S. pyogenes; 86519) was 0.125 µg/mL (≈ 0.294 µM) and the MIC range (S. pyogenes; n = 12 isolates) was 0.06 to 0.125 µg/mL.
